Measured values published in patent US11185593B2, “Alkylating agent for alkylating target with driver oncogene mutation” (Chiba Prefecture, priority 2013, dated 2021).

Key:
Format in all cases: cell-based
[1] = tested on: TGW cells (MYCN, 60 copies); test: Cell growth curve, Incucyte culture time-lapse microscope; details: 1 to 100 nM, FIG. 32
Protocol: (§1) The cells were seeded in each well of a 96-well plate at a cell density of 1000 cells/50 μl/well, and were then cultured under conditions of 37° C., 5% CO2, and saturated humidity for 24 hours. On the following day, the culture media was replaced with a culture media, to which a DMSO control, or 1 nM, 3 nM, 10 nM, 30 nM or 100 nM MYCNA1 had been added, and the resulting cells were then observed under an Incucyte culture time-lapse microscope (Essen Instruments, Ann Arbor, Mich.) every 6 hours. A growth curve was produced from an imaging plate using Incucyte system (Essen Instruments, Ann Arbor, Mich.). The cells used in the experiment were neuroblastoma cell lines having MYCN amplification, IMR-32 cells (MYCN, 25 copies) and TGW cells (MYCN, 60 copies). The cells of each type were cultured in a DMEM, 10% FBS and 1% Pen/St medium, and in an RPMI1640, 10% FBS and 1% Pen/St medium, respectively.

[2] = tested on: IMR-32 cells (MYCN, 25 copies); test: as above; details: IMR-32, 1 to 100 nM, FIG. 32
Protocol: as §1

IMR-32 cells = test: Cytotoxicity test, Cell Counting Kit-8, 72 hours; details: Homo sapiens
Protocol: (§2) The experiment was carried out in the same manner as that in the case of using KR12. The cells used in the experiment were Kelly cells, SK-N-SH cells, IMR-32 cells, SK-N-AS cells, and MDA-MB-231 cells. These cells were cultured in a DMEM, 10% FBS and 1% Pen/St medium, and in an RPMI1640, 10% FBS and 1% Pen/St medium, respectively. The cells of each type were seeded in each well of a 96-well plate at a cell density of 1000 cells/50 μl/well, and were then cultured under conditions of 37° C., 5% CO2, and saturated humidity for 24 hours. Thereafter, a reagent was diluted with a medium (final concentration: 1, 3, 10, 30, and 100 nM), and the diluted reagent was then added to the cultured cells in an amount of 50 μl/well, and the obtained mixture was then blended. The thus obtained mixture was cultured again under conditions of 37° C., 5% CO2, and saturated humidity for 72 hours. Thereafter, Cell Counting Kit-8 (DOJINDO) was added to the obtained culture in an amount of 10 μl/well, and the thus obtained mixture was blended and was then cultured under conditions of 37° C., 5% CO2, and saturated humidity for 2 hours. The absorbance was measured using Microplate Reader MTP-310 Lab (COLONA ELECTORIC), and the IC50 value was then calculated.
as §2, with “were” for “were Kelly cells, SK-N-SH cells,”, “cells” for “cells, SK-N-AS cells,”, “TGW” for “MDA-MB-231”

TGW cells = test: Cytotoxicity test, Cell Counting Kit-8, 72 hours
Protocol: as §2, with “were” for “were Kelly cells, SK-N-SH cells,”, “cells” for “cells, SK-N-AS cells,”, “TGW” for “MDA-MB-231”

HDF cells = test: Cell growth measurement test, 72 hours; details: fibroblasts, 0.3 to 300 nM
NB69 cells = test: Cell growth measurement test, 72 hours; details: Homo sapiens, NB69, without MYCN amplification, 0.3 to 300 nM
MCF7 cells = test: Cytotoxicity test, Cell Counting Kit-8, 72 hours; details: Homo sapiens, MCF7, breast cancer cells, 0.3 to 300 nM
Protocol: as §2, with “MCF7 cells” for “Kelly cells, SK-N-SH cells, IMR-32 cells, SK-N-AS cells,”

HT29 cells = test: Cell growth measurement test, 72 hours; details: Homo sapiens, HT-29, HT29, colon cancer cells, 0.3 to 300 nM

SMILES	cell growth (growth curve) [1]	cell growth (growth curve) [2]	IC50 (IMR-32 cells; IMR-32 cells, 1 to 100 nM, FIG. 33) [nM]	IC50 (TGW cells; TGW cells, 1 to 100 nM, FIG. 33) [nM]	IC50 (HDF cells) [nM]	IC50 (NB69 cells) [nM]	IC50 (IMR-32 cells; IMR-32, IMR32, with MYCN amplification, 0.3 to 300 nM) [nM]	IC50 (MCF7 cells) [nM]	IC50 (TGW cells; TGW, with MYCN amplification, 0.3 to 300 nM) [nM]	IC50 (HT29 cells) [nM]
CC(=O)Nc1cn(C)c(C(=O)Nc2cc(C(=O)Nc3cc(C(=O)NCCC(=O)Nc4cn(C)c(C(=O)Nc5cc(C(=O)NCCCC(=O)Nc6cc(C(=O)Nc7cc(C(=O)NCCC(=O)Nc8cc(C(=O)Nc9ccc%10[nH]c(C(=O)N%11CC(CCl)c%12c%11cc(O)c%11ccccc%12%11)cc%10c9)n(C)c8)n(C)c7)n(C)c6)n(C)c5)n4)n(C)c3)n(C)c2)n1 (stereo not shown) [MYCNA1]	suppressed by MYCNA1 in a concentration-dependent manner	suppressed by MYCNA1 in a concentration-dependent manner	9.7	12.9						
CC(=O)Nc1cn(C)c(C(=O)Nc2cn(C)c(C(=O)Nc3cn(C)c(C(=O)NCCC(=O)Nc4cn(C)c(C(=O)Nc5cc(C(=O)Nc6cc(C(=O)NCCCC(=O)Nc7cn(C)c(C(=O)Nc8cn(C)c(C(=O)Nc9cc(C(=O)NCCC(=O)Nc%10cc(C(=O)Nc%11ccc%12[nH]c(C(=O)N%13CC(CCl)c%14c%13cc(O)c%13ccccc%14%13)cc%12c%11)n(C)c%10)n(C)c9)n8)n7)n(C)c6)n(C)c5)n4)n3)n2)n1 (stereo not shown) [MYCNA3]					56.6	77	1.1	152	3.7	240
